Assay results published in patent publication US6358885B1, “Substituted phenylheterocyclic herbicides” (Mississippi State University, priority 1992, dated 2002).

What was measured:
[1] = test system: barnyardgrass; assay: Test C flood test plant response rating 0 to 100; type: in vivo, Echinochloa crus-galli
Outline: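 Compounds in non-phytotoxic solvent applied preemergence to sandy loam one day after planting, postemergence at the 1–4 leaf stage, or to ~2.5 cm floodwater over silt loam.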

[2] = test system: sugar beet; assay: Test C preemergence/postemergence greenhouse plant response rating 0 to 100; type: in vivo, Beta vulgaris; settings: POSTEMERGENCE
Outline: (§1)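 Compounds in non-phytotoxic solvent went onto sandy loam before emergence (seeded one day earlier) or onto plants at the one-to-four leaf stage. Duck salad was treated via flood water (~2.5 cm, maintained) over silt loam.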

[3] = test system: wheat; assay: Test B preemergence/postemergence greenhouse plant response rating 0 to 10; type: in vivo, Triticum aestivum; settings: 0 to 10 scale
Outline: (§2)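 Planted seeds are treated preemergence with compound dissolved in a non-phytotoxic solvent, while postemergence applications go onto plants of two to eighteen cm. Plants stay in the greenhouse twelve to sixteen days and are then rated visually relative to controls.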

[4] = test system: corn; assay: as above; type: in vivo, Zea mays; settings: 0 to 10 scale
Outline: as §2

[5] = test system: rice; assay: as above; type: in vivo, Oryza sativa; settings: 0 to 10 scale
Outline: as §2

[6] = test system: wild oat; assay: as above; type: in vivo, Avena fatua; settings: 0 to 10 scale
Outline: as §2

[7] = test system: duck salad; assay: Test C flood test plant response rating 0 to 100; type: in vivo, Heteranthera limosa
Outline: as §1

[8] = test system: cotton; assay: Test B preemergence/postemergence greenhouse plant response rating 0 to 10; type: in vivo, Gossypium hirsutum; settings: 0 to 10 scale
Outline: as §2

[9] = test system: cotton; assay: Test C preemergence/postemergence greenhouse plant response rating 0 to 100; type: in vivo, Gossypium hirsutum; settings: POSTEMERGENCE
Outline: as §1

[10] = test system: downy brome; assay: as above; type: in vivo, Bromus tectorum; settings: POSTEMERGENCE
Outline: as §1

[11] = test system: sorghum; assay: as above; type: in vivo, Sorghum bicolor; settings: POSTEMERGENCE
Outline: as §1

[12] = test system: velvetleaf; assay: as above; type: in vivo, Abutilon theophrasti; settings: POSTEMERGENCE
Outline: as §1

[13] = test system: crabgrass; assay: as above; type: in vivo, Digitaria sanguinalis; settings: POSTEMERGENCE
Outline: as §1

[14] = test system: giant foxtail; assay: as above; type: in vivo, Setaria faberii; settings: POSTEMERGENCE
Outline: as §1

[15] = test system: lambsquarters; assay: as above; type: in vivo, Chenopodium album; settings: POSTEMERGENCE
Outline: as §1

[16] = test system: lambsquarters; assay: Test B preemergence/postemergence greenhouse plant response rating 0 to 10; type: in vivo, Chenopodium album; settings: 0 to 10 scale
Outline: as §2

[17] = test system: cheatgrass; assay: as above; type: in vivo, Bromus secalinus; settings: 0 to 10 scale
Outline: as §2

[18] = test system: bedstraw; assay: Test C preemergence/postemergence greenhouse plant response rating 0 to 100; type: in vivo, Galium aparine; settings: POSTEMERGENCE
Outline: as §1

[19] = POSTEMERGENCE section, flood test, Rate 1 g/ha
[20] = POSTEMERGENCE section, flood test, Rate 4 g/ha
[21] = Rate 16 g/ha, under POSTEMERGENCE head (flood test species)
[22] = flood test species listed under POSTEMERGENCE, 62 g/ha, 0 to 100 scale

`COCN1C(=O)COc2cc(F)c(-c3nn4c(c3Cl)CCCC4)cc21` [Compound 55] was tested. Which “Plant response rating (0 to 100), Barnyardgrass 2” value [1, 19] did it give?
Its value is 10.

What about the “Plant response rating (0 to 100), Barnyardgrass 2” value [1, 20] of the same molecule?
Its value is 60.

And the “Plant response rating (0 to 100), Barnyardgrass 2” value [1, 21]?
Its value is 90.

And the “Plant response rating Barnyardgrass 2” value [1, 22]?
Its value is 100.

And the “Plant response rating, Sugar beet” value ([2]; 62 g/ha, 0 to 100 scale)?
The value was 100.

And the “Plant response rating (0 to 100), Sugar beet” value ([2]; Rate 1 g/ha)?
Its value is 100.

What about the “Plant response rating (0 to 100), Sugar beet” value ([2]; Rate 4 g/ha) of the same molecule?
Its value is 100.

And the “Plant response rating (0 to 100), Sugar beet” value ([2]; Rate 16 g/ha)?
The value was 100.

And the “Plant response rating, Wheat” value ([3]; POSTEMERGENCE, Rate 10 g/ha)?
The value was 8.

What about the “Plant response rating, Wheat” value ([3]; POSTEMERGENCE, Rate 50 g/ha) of the same molecule?
The value was 6.

And the “Plant response rating, Wheat” value ([3]; PREEMERGENCE, Rate 50 g/ha)?
Its value is 4.

And the “Plant response rating, Corn” value ([4]; POSTEMERGENCE, Rate 10 g/ha)?
The value was 3.

And the “Plant response rating, Corn” value ([4]; POSTEMERGENCE, Rate 50 g/ha)?
The value was 5.

And the “Plant response rating, Corn” value ([4]; PREEMERGENCE, Rate 50 g/ha)?
The value was 1.

What about the “Plant response rating, Rice” value ([5]; POSTEMERGENCE, Rate 10 g/ha) of the same molecule?
Its value is 3.

What about the “Plant response rating, Rice” value ([5]; POSTEMERGENCE, Rate 50 g/ha) of the same molecule?
Its value is 4.

What about the “Plant response rating, Rice” value ([5]; PREEMERGENCE, Rate 50 g/ha) of the same molecule?
The value was 0.

What about the “Plant response rating, Wild oat” value ([6]; POSTEMERGENCE, Rate 10 g/ha) of the same molecule?
The value was 6.

And the “Plant response rating, Wild oat” value ([6]; POSTEMERGENCE, Rate 50 g/ha)?
Its value is 7.

What about the “Plant response rating, Wild oat” value ([6]; PREEMERGENCE, Rate 50 g/ha) of the same molecule?
The value was 9.

What about the “Plant response rating (0 to 100), Duck salad” value [7, 19] of the same molecule?
Its value is 0.

And the “Plant response rating (0 to 100), Duck salad” value [7, 20]?
Its value is 0.

And the “Plant response rating (0 to 100), Duck salad” value [7, 21]?
Its value is 10.

And the “Plant response rating Duck salad” value [7, 22]?
The value was 50.

And the “Plant response rating, Cotton” value ([8]; POSTEMERGENCE, Rate 10 g/ha)?
Its value is 10.

What about the “Plant response rating, Cotton” value ([8]; POSTEMERGENCE, Rate 50 g/ha) of the same molecule?
Its value is 10.

And the “Plant response rating, Cotton” value ([8]; PREEMERGENCE, Rate 10 g/ha)?
Its value is 6.

And the “Plant response rating, Cotton” value ([8]; PREEMERGENCE, Rate 50 g/ha)?
The value was 1.

And the “Plant response rating, Cotton” value ([9]; 62 g/ha, 0 to 100 scale)?
Its value is 100.

And the “Plant response rating (0 to 100), Cotton” value ([9]; Rate 1 g/ha)?
Its value is 90.

What about the “Plant response rating (0 to 100), Cotton” value ([9]; Rate 4 g/ha) of the same molecule?
The value was 100.

And the “Plant response rating (0 to 100), Cotton” value ([9]; Rate 16 g/ha)?
Its value is 100.

And the “Plant response rating Downy Brome” value ([10]; 62 g/ha, 0 to 100 scale)?
The value was 70.

What about the “Plant response rating (0 to 100), Downy Brome” value ([10]; Rate 1 g/ha) of the same molecule?
The value was 30.

And the “Plant response rating (0 to 100), Downy Brome” value ([10]; Rate 4 g/ha)?
The value was 40.

And the “Plant response rating (0 to 100), Downy Brome” value ([10]; Rate 16 g/ha)?
Its value is 60.

And the “Plant response rating, Sorghum” value ([11]; 62 g/ha, 0 to 100 scale)?
Its value is 60.

What about the “Plant response rating (0 to 100), Sorghum” value ([11]; Rate 1 g/ha) of the same molecule?
The value was 30.

And the “Plant response rating (0 to 100), Sorghum” value ([11]; Rate 4 g/ha)?
The value was 40.

What about the “Plant response rating (0 to 100), Sorghum” value ([11]; Rate 16 g/ha) of the same molecule?
Its value is 50.

What about the “Plant response rating, Velvetleaf” value ([12]; 62 g/ha, 0 to 100 scale) of the same molecule?
The value was 100.

And the “Plant response rating (0 to 100), Velvetleaf” value ([12]; Rate 1 g/ha)?
Its value is 80.

And the “Plant response rating (0 to 100), Velvetleaf” value ([12]; Rate 4 g/ha)?
Its value is 100.

What about the “Plant response rating (0 to 100), Velvetleaf” value ([12]; Rate 16 g/ha) of the same molecule?
The value was 100.

And the “Plant response rating, Crabgrass” value ([13]; 62 g/ha, 0 to 100 scale)?
The value was 40.

What about the “Plant response rating (0 to 100), Crabgrass” value ([13]; Rate 1 g/ha) of the same molecule?
Its value is 10.

And the “Plant response rating (0 to 100), Crabgrass” value ([13]; Rate 4 g/ha)?
The value was 10.

And the “Plant response rating (0 to 100), Crabgrass” value ([13]; Rate 16 g/ha)?
The value was 30.

What about the “Plant response rating, Giant foxtail” value ([14]; 62 g/ha, 0 to 100 scale) of the same molecule?
Its value is 50.

And the “Plant response rating (0 to 100), Giant foxtail” value ([14]; Rate 1 g/ha)?
Its value is 20.

And the “Plant response rating (0 to 100), Giant foxtail” value ([14]; Rate 4 g/ha)?
Its value is 30.

And the “Plant response rating (0 to 100), Giant foxtail” value ([14]; Rate 16 g/ha)?
Its value is 40.

And the “Plant response rating Lambsquarters” value ([15]; 62 g/ha, 0 to 100 scale)?
The value was 100.

What about the “Plant response rating (0 to 100), Lambsquarters” value ([15]; Rate 1 g/ha) of the same molecule?
Its value is 100.

What about the “Plant response rating (0 to 100), Lambsquarters” value ([15]; Rate 4 g/ha) of the same molecule?
Its value is 100.

What about the “Plant response rating (0 to 100), Lambsquarters” value ([15]; Rate 16 g/ha) of the same molecule?
Its value is 100.

And the “Plant response rating, Lambsquarter” value ([16]; POSTEMERGENCE, Rate 10 g/ha)?
The value was 10.

And the “Plant response rating, Lambsquarter” value ([16]; POSTEMERGENCE, Rate 50 g/ha)?
Its value is 10.

What about the “Plant response rating, Lambsquarter” value ([16]; PREEMERGENCE, Rate 50 g/ha) of the same molecule?
The value was 10.

What about the “Plant response rating, Cheatgrass” value ([17]; POSTEMERGENCE, Rate 10 g/ha) of the same molecule?
The value was 6.

What about the “Plant response rating, Cheatgrass” value ([17]; POSTEMERGENCE, Rate 50 g/ha) of the same molecule?
Its value is 8.

What about the “Plant response rating, Cheatgrass” value ([17]; PREEMERGENCE, Rate 10 g/ha) of the same molecule?
The value was 1.

And the “Plant response rating, Cheatgrass” value ([17]; PREEMERGENCE, Rate 50 g/ha)?
The value was 5.

And the “Plant response rating, Bedstraw” value ([18]; 62 g/ha, 0 to 100 scale)?
The value was 100.

What about the “Plant response rating (0 to 100), Bedstraw” value ([18]; Rate 1 g/ha) of the same molecule?
Its value is 30.

And the “Plant response rating (0 to 100), Bedstraw” value ([18]; Rate 4 g/ha)?
Its value is 90.

And the “Plant response rating (0 to 100), Bedstraw” value ([18]; Rate 16 g/ha)?
The value was 100.
